# Source: patent US20080220065A1, “Compositions for treating foot odor and methods of use thereof” (priority 2007, published 2008)
# Key:
# [1] = test system: ubiquitous microbial cultures collected from common household and mammalian sources; experiment: filter disc incubation with streak-inoculated microbial cultures; format: cell-based; conditions: filter discs impregnated by aqueous saturation, incubated with the cultures
# Method: Initial comparative studies were conducted in an effort to validate the antimicrobial activities of cupric compounds, wherein ubiquitous microbial cultures were collected from common household and mammalian sources and isolated in identifiable colonies by streak inoculation.
# [2] = test system: foot odor; experiment: efficacy duration study, twenty-six persons, right vs left footwear, olfactory evaluation; format: in vivo, human; conditions: for olfactory evaluation of footwear and feet: three days following administration
# Method: Thereafter, to test the efficacy duration of the preferred mixture and concentration of the present invention, a study was conducted of twenty-six persons, male and female, ranging in ages from 7-71 years, all presenting with foul and distressing foot odor. These twenty-six persons had all of their “right-side” footwear treated with 1-1.25 g of cupric carbonate and their “left-side” footwear with 1-1.25 g sodium bicarbonate. Three days following administration, each shoe worn and both feet of each participant were evaluated via olfactory sense. Evaluation results were the same, without exception, for all participants.
# [3] = test system: foot odor; experiment: dosing specification study, organoleptic odor evaluation, six volunteers; format: in vivo, human; conditions: for organoleptic odor evaluation: after three, 10 and 30 days
# Method: Dosing specification studies were conducted in order to define a preferred minimum quantity for preferred use; although mindful of the differences in performance, more or less than the preferred minimum quantity could be utilized in alternate compositions. Initial test dosing was approximately 3.5 to 4.0 grams dispersed within each shoe, with excess bumped out through the footwear opening.
# In the study, six volunteer participants with confirmed and self-recognized foot odor participated in trials to establish preferred upper and lower specification ranges. […] The left shoes were treated in a variable fashion, from an initial 3.5 gram dose to a final dose of 0.5 grams, via 0.5 gram increments. An organoleptic evaluation was performed by each test subject, and also be the inventor, after three days, 10 days, and 30 days of treatment for each dose.
# [4] = test system: foot odor; experiment: initial empirical use studies in footwear
# Description: Initial empirical use studies involved finely divided elemental copper powder.
compound,measurement,setting,value
"CC(=O)[O-].CC(=O)[O-].[Cu+2] [acetate solution, cupric acetate]",antimicrobial properties,[1],confirming the existence of antimicrobial properties
"O=C([O-])O.[Na+] [sodium bicarbonate, reference compound]",olfactory evaluation of footwear and feet,[2]; 1-1.25 g per shoe,no obvious change in degree of unpleasant odor
"cupric carbonate, CuCO3.Cu(OH)2",olfactory evaluation of footwear and feet,[2]; 1-1.25 g per shoe,no detectable hint of unpleasantness
same,duration of effectiveness,"[2]; 1-1.25 g per shoe, in many cases twelve months or more",at least six
same,effectiveness,[2]; for at least six months,~100%
same,efficacy against foot odor in earlier testing,"[3]; 4.0 gram dosing, positive control, right shoe",shown the efficacy
same,organoleptic odor evaluation,[3]; dosed at or above 1.5 grams per shoe,no detectable trace of odor beyond that of damp footwear
same,organoleptic odor evaluation,[3]; dosed at or below 1.0 gram per shoe,"some malodorous relief, but for a more limited period of time"
same,contact dermatitis,[4]; in vivo,contact dermatitis was completely eliminated
same,antimicrobial properties,[1],confirming the existence of antimicrobial properties
cupric chloride,contact dermatitis,[4]; use in footwear,varying degrees of contact dermatitis
